Assay: Hydrolysis rate / drug release rate of the compounds (release of JAK inhibitor, HPLC)
Type: physicochemical
Details: % release of JAK inhibitor from sample in acetonitrile/water=7/3 (v/v), 37° C. constant temperature shaker, sampled days 1-4, HPLC
Method in brief: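 Compounds (about 5 mg per 20 mL) were dissolved in acetonitrile/water 7/3 (v/v) and held sealed at 37° C in a shaker, sampled on days 0, 1, 2, 3 and 4. Released JAK inhibitor was quantified by HPLC peak area against a 0.0002–0.08 mg/mL reference curve and expressed as % release corrected for molecular weights.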

Row | Release Rate (%/day) | Structure (SMILES)
1 | 0.35 | CNS(=O)(=O)C[C@H]1CC[C@H](N(C)c2ncnc3c2ccn3COC(=O)C(C)c2cccc(C(=O)c3ccccc3)c2)CC1 (stereo partly drawn) [Ex. 90, (4-(Methyl ((trans)-4-((N-methylsulfamoyl)methyl)cyclohexyl)amino)-7H-pyrrolo [2,3-d]pyrimidin-7-yl) methyl 2-(3-benzoylphenyl) propanoate]
2 | 0.82 | CNS(=O)(=O)C[C@H]1CC[C@H](N(C)c2ncnc3c2ccn3COC(=O)Cc2ccccc2Nc2c(Cl)cccc2Cl)CC1 [Ex. 92, (4-(Methyl ((trans)-4-((N-methylsulfamoyl)methyl)cyclohexyl)amino)-7H-pyrrolo [2,3-d]pyrimidin-7-yl) methyl 2-(2-((2,6-dichlorophenyl)amino)phenyl) acetate]
3 | 0.83 | CNS(=O)(=O)C[C@H]1CC[C@H](N(C)c2ncnc3c2ccn3COC(=O)Cc2ccc(NC(C)=O)cc2)CC1 [Ex. 93, (4-(Methyl ((trans)-4-((N-methylsulfamoyl)methyl)cyclohexyl)amino)-7H-pyrrolo [2,3-d]pyrimidin-7-yl) methyl 2-(4-acetamidophenyl) acetate]
4 | 0.72 | CCc1cccc2c3c([nH]c12)C(CC)(CC(=O)OCn1ccc2c(N(C)[C@H]4CC[C@H](CS(=O)(=O)NC)CC4)ncnc21)OCC3 (stereo partly drawn) [Ex. 94, (4-(Methyl ((trans)-4-((N-methylsulfamoyl)methyl)cyclohexyl)amino)-7H-pyrrolo [2,3-d]pyrimidin-7-yl) methyl 2-(1,8-diethyl-1,3,4,9-tetrahydropyran [3,4-b]indol-1-yl) acetate]
5 | 0.21 | CC(C(=O)OCn1ccc2c(-c3cnn([C@H](CC#N)C4CCCC4)c3)ncnc21)c1cccc(C(=O)c2ccccc2)c1 (stereo partly drawn) [Ex. 99, (4-(1-((R)-2-cyano-1-cyclopentylethyl)-1H-pyrazol-4-yl)-7H-pyrrolo [2,3-d]pyrimidin-7-yl) methyl 2-(3-benzoylphenyl) propanoate]
6 | 0.24 | CC(C(=O)OCn1ccc2c(-c3cnn([C@H](CC#N)C4CCCC4)c3)ncnc21)c1ccc(-c2ccccc2)c(F)c1 (stereo partly drawn) [Ex. 100, (4-(1-((R)-2-cyano-1-cyclopentylethyl)-1H-pyrazol-4-yl)-7H-pyrrolo [2,3-d]pyrimidin-7-yl) methyl 2-(2-fluoro-[1, 1′-biphenyl]-4-yl) propanoate]
7 | 0.45 | COc1ccc2c(c1)c(CC(=O)OCn1ccc3c(-c4cnn([C@H](CC#N)C5CCCC5)c4)ncnc31)c(C)n2C(=O)c1ccc(Cl)cc1 [Ex. 104, (R)-2-(4-(1-(2-cyano-1-cyclopentylethyl)-1H-pyrazol-4-yl)-7H-pyrrolo [2,3-d]pyrimidin-7-yl) methyl 2-(1-(4-chlorobenzoyl)-5-methoxy-2-methyl-1H-indol-3-yl) acetate]
8 | 0.17 | CCC(C(=O)OCn1ccc2c(-c3cnn([C@H](CC#N)C4CCCC4)c3)ncnc21)c1ccc(N2Cc3ccccc3C2=O)cc1 (stereo partly drawn) [Ex. 105, (4-(1-((R)-2-cyano-1-cyclopentylethyl)-1H-pyrazol-4-yl)-7H-pyrrolo [2,3-d]pyrimidin-7-yl) methyl 2-(4-(1-oxoisoindolin-2-yl)phenyl) butanoate]
9 | 0.22 | Cc1c(Cl)cccc1Nc1ccccc1C(=O)OCn1ccc2c(-c3cnn([C@H](CC#N)C4CCCC4)c3)ncnc21 [Ex. 107, (R)-(4-(1-(2-cyano-1-cyclopentylethyl)-1H-pyrazol-4-yl)-7H-pyrrolo [2,3-d]pyrimidin-7-yl) methyl 2-((3-chloro-2-methylphenyl)amino) benzoate]
10 | 0.08 | CC(=O)Nc1ccc(CC(=O)OCn2ccc3c(-c4cnn([C@H](CC#N)C5CCCC5)c4)ncnc32)cc1 [Ex. 110, (R)-(4-(1-(2-cyano-1-cyclopentylethyl)-1H-pyrazol-4-yl)-7H-pyrrolo [2,3-d]pyrimidin-7-yl) methyl 2-(4-acetamidophenyl) acetate]
11 | 0.42 | CNS(=O)(=O)CC1CCC(N(C)c2ncnc3c2ccn3COC(=O)C(C)c2ccc(-c3ccccc3)c(F)c2)CC1 (stereo not drawn) [Ex. 113, (4-(Methyl ((trans)-4-((N-methylsulfamoyl)methyl)cyclohexyl)amino)-7H-pyrrolo [2,3-d]pyrimidin-7-yl) methyl 2-(2-fluoro-[1, 1′-biphenyl]-4-yl) propanoate]
12 | 0.42 | CNS(=O)(=O)CC1CCC(N(C)c2ncnc3c2ccn3COC(=O)Cc2c(C)n(C(=O)c3ccc(Cl)cc3)c3ccc(OC)cc23)CC1 (stereo not drawn) [Ex. 116, (4-(Methyl ((trans)-4-((N-methylsulfamoyl)methyl)cyclohexyl)amino)-7H-pyrrolo [2,3-d]pyrimidin-7-yl) methyl 2-(1-(4-chlorobenzoyl)-5-methoxy-2-methyl-1H-indol-3-yl) acetate]
13 | 0.08 | CCC(C(=O)OCn1ccc2c(N(C)C3CCC(CS(=O)(=O)NC)CC3)ncnc21)c1ccc(N2Cc3ccccc3C2=O)cc1 (stereo not drawn) [Ex. 117, (4-(Methyl ((trans)-4-((N-methylsulfamoyl)methyl)cyclohexyl)amino)-7H-pyrrolo [2,3-d]pyrimidin-7-yl) methyl 2-(4-(1-)oxoisoindolin-2-yl) phenyl) butanoate]
14 | 0.42 | CNS(=O)(=O)C[C@H]1CC[C@H](N(C)c2ncnc3c2ccn3COC(=O)c2ccccc2Nc2cccc(Cl)c2C)CC1 [Ex. 120, (4-(Methyl ((trans)-4-((N-methylsulfamoyl)methyl)cyclohexyl)amino)-7H-pyrrolo [2,3-d]pyrimidin-7-yl) methyl 2-((3-chloro-2-methylphenyl)amino) benzoate]
15 | 15.32 | CCS(=O)(=O)N1CC(CC#N)(n2cc(-c3ncnc4c3ccn4COC3=C(C(=O)Nc4ncc(C)s4)N(C)S(=O)(=O)c4ccccc43)cn2)C1 [Ex. 122, 4-((4-(1-(3-(Cyanomethyl)-1-(ethylsulfonyl)azetidin-3-yl)-1H-pyrazol-4-yl)-7H-pyrrolo [2,3-d]pyrimidin-7-yl)methoxy)-2-methyl-N-(5-methylthiazol-2-yl)-2H-benzo [e] [1, 2] thiazine-3-carboxamide 1,1-dioxide]
16 | 3.02 | CC[C@@H]1CN(C(=O)NCC(F)(F)F)C[C@@H]1c1cnc2cnc3c(ccn3C(=O)[C@@H](C)c3ccc(CC(C)C)cc3)n12 [Ex. 123, (3S, 4R)-3-ethyl-4-(3-((S)-2-(4-isobutylphenyl)propanoyl)-3H-imidazo [1,2-a]pyrrolo [2,3-e]pyrazin-8-yl)-N-(2,2,2-trifluoroethyl) pyrrolidine-1-carboxamide]
17 | 2.75 | CC[C@@H]1CN(C(=O)NCC(F)(F)F)C[C@@H]1c1cnc2cnc3c(ccn3C(=O)C(C)c3ccc(CC(C)C)cc3)n12 (stereo partly drawn) [Ex. 124, (3S, 4R)-3-ethyl-4-(3-(2-(4-isobutylphenyl)propanoyl)-3H-imidazo [1,2-a]pyrrolo [2,3-e]pyrazin-8-yl)-N-(2,2,2-trifluoroethyl) pyrrolidine-1-carboxamide]
18 | 6.17 | CC[C@@H]1CN(C(=O)NCC(F)(F)F)C[C@@H]1c1cnc2cnc3c(ccn3C(=O)C(C)c3ccc(-c4ccccc4)c(F)c3)n12 (stereo partly drawn) [Ex. 125, (3S, 4R)-3-ethyl-4-(3-(2-(2-fluoro-[1, 1′-biphenyl]-4-yl)propanoyl)-3H-imidazo [1,2-a]pyrrolo [2,3-e]pyrazin-8-yl)-N-(2,2,2-trifluoroethyl) pyrrolidine-1-carboxamide]
19 | 7.80 | CC[C@@H]1CN(C(=O)NCC(F)(F)F)C[C@@H]1c1cnc2cnc3c(ccn3C(=O)C(C)c3cccc(C(=O)c4ccccc4)c3)n12 (stereo partly drawn) [Ex. 126, (3R, 4S)-3-(3-(2-(3-benzoylphenyl)propanoyl)-3H-imidazo [1,2-a]pyrrolo [2,3-e]pyrazin-8-yl)-4-ethyl-N-(2,2,2-trifluoroethyl) pyrrolidine-1-carboxamide]
20 | 11.67 | CC[C@@H]1CN(C(=O)NCC(F)(F)F)C[C@@H]1c1cnc2cnc3c(ccn3C(=O)c3ccccc3Nc3cccc(Cl)c3C)n12 [Ex. 130, (3R, 4S)-3-(3-(2-((3-chloro-2-methylphenyl)amino)benzoyl)-3H-imidazo [1,2-a]pyrrolo [2,3-e]pyrazin-8-yl)-4-ethyl-N-(2,2,2-trifluoroethyl) pyrrolidine-1-carboxamide]
21 | 3.56 | CC[C@@H]1CN(C(=O)NCC(F)(F)F)C[C@@H]1c1cnc2cnc3c(ccn3C(=O)[C@@H](C)c3ccc4cc(OC)ccc4c3)n12 [Ex. 131]
22 | 10.13 | CC[C@@H]1CN(C(=O)NCC(F)(F)F)C[C@@H]1c1cnc2cnc3c(ccn3C(=O)Cc3c(C)n(C(=O)c4ccc(Cl)cc4)c4ccc(OC)cc34)n12 [Ex. 133, (3R, 4S)-3-(3-(2-(1-(4-Chlorobenzoyl)-5-methoxy-2-methyl-1H-indol-3-yl)acetyl)-3H-imidazo [1,2-a]pyrrolo [2,3-e]pyrazin-8-yl)-4-ethyl-N-(2,2,2-trifluoroethyl) pyrrolidine-1-carboxamide]
23 | 2.15 | CCC(C(=O)n1ccc2c1ncc1ncc([C@H]3CN(C(=O)NCC(F)(F)F)C[C@H]3CC)n12)c1ccc(N2Cc3ccccc3C2=O)cc1 (stereo partly shown) [Ex. 138]
24 | 8.10 | CC(C)Cc1ccc([C@H](C)C(=O)n2ccc3c(N4CC[C@]5(C4)[C@@H](C)CN5C(=O)CC#N)ncnc32)cc1 [Ex. 140, 3-((3S, 4R)-6-(7-((S)-2-(4-isobutylphenyl)propanoyl)-7H-pyrrolo [2,3-d]pyrimidin-4-yl)-3-methyl-1,6-diazaspiro [3.4]oct-1-yl)-3-oxopropanenitrile]

Row | Structure (SMILES) | Release Rate (%/day)
25 | CNS(=O)(=O)C[C@H]1CC[C@H](N(C)c2ncnc3c2ccn3COC(=O)[C@@H](NC(=O)OC(C)(C)C)c2ccccc2)CC1 [Ex. 91, (4-(Methyl ((trans)-4-((N-methylsulfamoyl)methyl)cyclohexyl)amino)-7H-pyrrolo [2,3-d]pyrimidin-7-yl) methyl (S)-2-((tert-butoxycarbonyl)amino)-2-phenylacetate] | 1.65

Reference: patent US12290519B2, “Anti-inflammatory coupling compound drug, and preparation method therefor and use thereof” (COVAL BIOPHARMA (SHANGHAI) CO., LTD., priority 2021, dated 2025)
